Numbering of substitutions follows the chain as printed. Numbers in names are those of the source.
Tests used:
HCC cells = test: Modulation of SMC cytotoxicity by agents that favor beta-elimination; conditions: more prominent together with overexpression of KYAT1
Native HCC cells = test: HCC cell viability with SMC in the presence of alfaketoacid analogues, native HCC cells; assay type: cell-based; conditions: IC50 of SMC in the presence of the labelled alfaketoacid analogue, relative to PPA treated HCC cells (=100)
Method: (§1) Normal hepatocytes and malignant hepatocytes (HCC) were incubated in the presence of various concentrations of SMC. After 72 h, the ATP content of lysed cells, which is proportional to the number of viable cells, was measured using a luminescence-based CellTiter Glo Kit (Promega) according to manufacturer's protocol using a FLx100 Luminometer (BioTek).

KYAT induced cells = test: HCC cell viability with SMC in the presence of alfaketoacid analogues, KYAT induced cells; assay type: cell-based; conditions: IC50 of SMC in the presence of the labelled alfaketoacid analogue, relative to untreated KYAT induced cells
Method: as §1

human KYAT1 = test: Selenol production by mutated KYAT1 using SMC as a substrate; assay type: biochemical; conditions: mutant versus wild type KYAT1
Text: The crystal structure of human KYAT1 has been determined for several complexes. The complex of KYAT1 with the cofactor PLP and the inhibitor L-Phe was used to create molecular models of Seleno-methyl Cystein (SMC) in complex with KYAT1 (FIG. 1). Our approach has been to identify residues that can be mutated in order to enhance beta-elimination of SMC, resulting in increased selenol production. This can be done by changing the substrate specificity of KYAT1 from kynurenine to SMC, or by changing kinetics of reprotonation of Calpha in the substrate. Several residues were mutated to check their potential involvement into the selenol formation.

## Cc1ncc(COP(=O)(O)O)c(C=O)c1O [PLP, pyridoxal 5′-phosphate]
HCC cells
  effect of the agent on the cytotoxicity of SMC: increase the cytotoxicity of SMC

## O=C(O)C(=O)Cc1ccccc1 [PPA, phenyl pyruvic acid]
HCC cells
  effect of the agent on the cytotoxicity of SMC: increase the cytotoxicity of SMC
Native HCC cells
  SMC IC50 (percentage of control): 100 percentage of control

## COC(=O)CCC(=O)C(=O)OC [αKG, dimethyl-2-oxoglutarate]
HCC cells
  effect of the agent on the cytotoxicity of SMC: increase the cytotoxicity of SMC

## indole pyruvic acid [IPA]
KYAT induced cells
  SMC IC50 (percentage of control): 35 percentage of control
Native HCC cells
  SMC IC50 (percentage of control): 38 percentage of control

B1: Y101H: mutant human kynurenine aminotransferase I, tyrosine to histidine substitution at position 101 (protein, listed as Homo sapiens)
chain: MAKQLQARRLDGIDYNPWVEFVKLASEHDVVNLGQGFPDFPPPDFAVEAFQHAVSGDFMLNQYTKTFGYPPLTKILASFFGELLGQEIDPLRNVLVTVGGHGALFTAFQALVDEGDEVIIIEPFFDCYEPMTMMAGGRPVFVSLKPGPIQNGELGSSSNWQLDPMELAGKFTSRTKALVLNTPNNPLGKVFSREELELVASLCQQHDVVCITDEVYQWMVYDGHQHISIASLPGMWERTLTIGSAGKTFSATGWKVGWVLGPDHIMKHLRTVHQNSVFHCPTQSQAAVAESFEREQLLFRQPSSYFVQFPQAMQRCRDHMIRSLQSVGLKPIIPQGSYFLITDISDFKRKMPDLPGAVDEPYDRRFVKWMIKNKGLVAIPVSIFYSVPHQKHFDHYIRFCFVKDEATLQAMDEKLRKWKVEL
Human KYAT1
  selenol production by KYAT1 using SMC as a substrate: higher selenol production

B2: H279F: mutant human kynurenine aminotransferase I, histidine to phenylalanine substitution at position 279 (protein, listed as Homo sapiens)
chain: B1 chain with H101Y, H279F
Human KYAT1
  selenol production by KYAT1 using SMC as a substrate: higher selenol production

— patent US12310936B2, “Pharmaceutical compositions for the treatment of cancer” (Seleq Oy, priority 2018, dated 2025)
